From a compilation of properties of binary mixtures (doi:10.1021/je3004904)

Assay: xn = mol fraction of the nth substance listed
Settings: 101 kPa

[Cl][Al]([Cl])[Cl] + CCCC[n+]1ccn(C)c1.[Cl-]
Settings	electrical conductivity [S/m]	viscosity [mPa·s]
293.15 K, x1 = 0.5	–	41.63
293.15 K, x1 = 0.5238	–	38.28
293.15 K, x1 = 0.545	–	35.03
293.15 K, x1 = 0.5454	–	34.99
293.15 K, x1 = 0.5653	–	32.26
293.15 K, x1 = 0.583	–	30.37
293.15 K, x1 = 0.5834	–	30.34
293.15 K, x1 = 0.6001	–	28.34
293.15 K, x1 = 0.615	–	26.91
293.15 K, x1 = 0.6154	–	26.89
293.15 K, x1 = 0.6296	–	25.31
293.15 K, x1 = 0.6429	–	24.35
293.15 K, x1 = 0.6551	–	23.44
293.15 K, x1 = 0.6667	–	22.54
298.15 K, x1 = 0.583	0.947	25.24
298.15 K, x1 = 0.615	0.931	22.59
298.15 K, x1 = 0.643	0.919	20.62
298.15 K, x1 = 0.667	0.912	19.42
303.15 K, x1 = 0.5	–	28.33
303.15 K, x1 = 0.545	1.14	24.35
303.15 K, x1 = 0.5454	–	24.32
303.15 K, x1 = 0.583	1.1	21.38
303.15 K, x1 = 0.5834	–	21.36
303.15 K, x1 = 0.6001	–	20.2
303.15 K, x1 = 0.615	1.07	19.34
303.15 K, x1 = 0.6154	–	19.33
303.15 K, x1 = 0.6296	–	18.29
303.15 K, x1 = 0.6551	–	17.1
303.15 K, x1 = 0.6667	–	16.73
308.15 K, x1 = 0.545	1.32	20.84
308.15 K, x1 = 0.583	1.26	18.31
308.15 K, x1 = 0.643	1.21	15.39
308.15 K, x1 = 0.667	1.2	14.59
313.15 K, x1 = 0.5	–	20.76
313.15 K, x1 = 0.5238	–	19.48
313.15 K, x1 = 0.545	1.51	18.1
313.15 K, x1 = 0.5653	–	16.92
313.15 K, x1 = 0.583	1.44	16.03
313.15 K, x1 = 0.5834	–	16.01
313.15 K, x1 = 0.6001	–	15.28
313.15 K, x1 = 0.615	1.39	14.61
313.15 K, x1 = 0.6296	–	13.96
313.15 K, x1 = 0.6429	–	13.53
313.15 K, x1 = 0.643	1.36	13.54
313.15 K, x1 = 0.6551	–	13.12
313.15 K, x1 = 0.6667	–	12.87
313.15 K, x1 = 0.667	1.34	12.87
318.15 K, x1 = 0.545	1.71	15.92
318.15 K, x1 = 0.583	1.63	14.15
318.15 K, x1 = 0.615	1.57	12.78
318.15 K, x1 = 0.643	1.52	12.04
323.15 K, x1 = 0.5238	–	15.16
323.15 K, x1 = 0.545	1.93	14.15
323.15 K, x1 = 0.5653	–	13.29
323.15 K, x1 = 0.583	1.83	12.61
323.15 K, x1 = 0.5834	–	12.6
323.15 K, x1 = 0.6001	–	12.09
323.15 K, x1 = 0.615	1.76	11.56
323.15 K, x1 = 0.6154	–	11.55
323.15 K, x1 = 0.6429	–	10.78
323.15 K, x1 = 0.643	1.69	10.8
323.15 K, x1 = 0.6551	–	10.48
323.15 K, x1 = 0.6667	–	10.17
323.15 K, x1 = 0.667	1.66	10.17
328.15 K, x1 = 0.545	2.15	12.7
328.15 K, x1 = 0.583	2.04	11.34
328.15 K, x1 = 0.615	1.95	10.45
328.15 K, x1 = 0.667	1.83	9.05
333.15 K, x1 = 0.5	–	12.95
333.15 K, x1 = 0.545	2.39	11.49
333.15 K, x1 = 0.5454	–	11.47
333.15 K, x1 = 0.5653	–	10.83
333.15 K, x1 = 0.583	2.26	10.29
333.15 K, x1 = 0.5834	–	10.28
333.15 K, x1 = 0.6154	–	9.49
333.15 K, x1 = 0.6429	–	8.88
333.15 K, x1 = 0.643	2.07	8.88
333.15 K, x1 = 0.6551	–	8.63
333.15 K, x1 = 0.6667	–	8.23
333.15 K, x1 = 0.667	2.01	8.23
338.15 K, x1 = 0.545	2.63	10.48
338.15 K, x1 = 0.583	2.49	9.4
338.15 K, x1 = 0.615	2.38	8.69
338.15 K, x1 = 0.643	2.28	8.14
338.15 K, x1 = 0.667	2.2	7.43
343.15 K, x1 = 0.5	–	10.78
343.15 K, x1 = 0.5238	–	10.26
343.15 K, x1 = 0.545	2.88	9.63
343.15 K, x1 = 0.5653	–	9.09
343.15 K, x1 = 0.583	2.73	8.64
343.15 K, x1 = 0.6001	–	8.34
343.15 K, x1 = 0.615	2.6	8.01
343.15 K, x1 = 0.6154	–	8.01
343.15 K, x1 = 0.6296	–	7.73
343.15 K, x1 = 0.643	2.5	7.5
343.15 K, x1 = 0.6551	–	7.209
343.15 K, x1 = 0.6667	–	6.824
343.15 K, x1 = 0.667	2.4	6.824

Cn1cc[nH+]c1.[Cl-] + Cl[Al](Cl)Cl
Settings	electrical conductivity, x2 = 0.643 [S/m]	electrical conductivity, x2 = 0.667 [S/m]	viscosity, x2 = 0.643 [mPa·s]	viscosity, x2 = 0.667 [mPa·s]
293.15 K	–	–	78.3	50.8
298.15 K	0.456	0.601	59.41	40.23
303.15 K	0.553	–	46.88	–
308.15 K	0.661	0.827	38.17	27.36
313.15 K	–	0.961	–	23.28
318.15 K	0.909	1.1	27.17	20.13
323.15 K	1.05	1.25	23.58	17.66
328.15 K	1.2	1.4	20.75	15.67
333.15 K	1.36	1.56	18.5	14.06
338.15 K	1.53	1.74	16.67	12.72
343.15 K	1.7	1.92	15.15	11.61
